{
  "source": "patent US20150018317A1",
  "about": "“BIOCIDAL COMPOSITION” (Dow Global Technologies LLC, priority 2010, published 2015)",
  "tested_on": "bacteria isolated from a industrial cooling water sample",
  "test": "Time-kill test in cooling water samples (MPN serial dilution)",
  "type": "cell-based",
  "conditions": "37° C., start about 5×10^7 CFU/ml",
  "protocol": "In this example, tributyl tetradecyl phosphonium chloride (TTPC), tetrakis(hydroxymethyl)phosphonium sulfate (THPS), and combinations of TTPC and THPS are tested at different concentrations for efficacy against bacteria isolated from a industrial cooling water sample. Water samples containing a final bacterial concentration of about 5×10^7 CFU/ml are used. Biocide solutions are prepared and diluted in sterile deionized water and used within 2 hours.\nTime-kill tests are carried out to determine the threshold concentrations required for biocide activity in the cooling water samples. Tests are conducted in a 96-deep well block format using a total sample volume of 600 μl for all evaluations. In these samples, no more than 10% of the total volume consists of the biocide and organism solution and all non-matrix additions are normalized for all samples. Each experimental 96-well block contains biocide-treated samples and control samples which lack biocide. The biocides are added to the bacterial suspension at various concentrations and mixed well. The mixture samples are then incubated at 37° C. At several time intervals starting from 1 hour, viable bacteria left in the mixture are determined using the MPN method of serial dilution.\nSynergy Index (SI) is calculated as shown below. An SI value of less than 1 indicates synergy.\nCa: Concentration of biocide A required to achieve bacterial concentrations of 2×10^3 CFU/ml or less when used in combination\nCA: Concentration of biocide A required to achieve bacterial concentrations of 2×10^3 CFU/ml or less when used alone\nCb: Concentration of biocide B required to achieve bacterial concentrations of 2×10^3 CFU/ml or less when used in combination\nCB: Concentration of biocide B required to achieve bacterial concentrations of 2×10^3 CFU/ml or less when used alone",
  "data": [
    {"compound": "tetrakis(hydroxymethyl)phosphonium sulfate [THPS]", "values": [
      {"measurement": "Concentration of active needed to achieve bacterial concentrations of 2×10^3 CFU/ml or less, biocide used alone", "setting": "4 hr", "result": 100, "unit": "ppm"},
      {"measurement": "Concentration of active needed to achieve bacterial concentrations of 2×10^3 CFU/ml or less, biocide used alone", "setting": "24 hr", "result": 75, "unit": "ppm"},
      {"measurement": "Concentration of active needed to achieve bacterial concentrations of 2×10^3 CFU/ml or less, biocide used alone", "setting": "48 hr", "result": 75, "unit": "ppm"},
      {"measurement": "Concentration of active needed to achieve bacterial concentrations of 2×10^3 CFU/ml or less, biocide used alone", "setting": "3 day", "result": 75, "unit": "ppm"},
      {"measurement": "Concentration of active needed to achieve bacterial concentrations of 2×10^3 CFU/ml or less, biocide used alone", "setting": "5 day", "result": 75, "unit": "ppm"},
      {"measurement": "Concentration of active needed to achieve bacterial concentrations of 2×10^3 CFU/ml or less, biocide used alone", "setting": "7 day", "result": 75, "unit": "ppm"}
    ]},
    {"compound": "CCCCCCCCCCCCCC[P+](CCCC)(CCCC)CCCC.[Cl-]", "note": "[TTPC, tributyl tetradecyl phosphonium chloride]", "values": [
      {"measurement": "Concentration of active needed to achieve bacterial concentrations of 2×10^3 CFU/ml or less, biocide used alone", "setting": "4 hr", "result": 30, "unit": "ppm"},
      {"measurement": "Concentration of active needed to achieve bacterial concentrations of 2×10^3 CFU/ml or less, biocide used alone", "setting": "24 hr", "result": 40, "unit": "ppm"},
      {"measurement": "Concentration of active needed to achieve bacterial concentrations of 2×10^3 CFU/ml or less, biocide used alone", "setting": "48 hr", "result": 40, "unit": "ppm"},
      {"measurement": "Concentration of active needed to achieve bacterial concentrations of 2×10^3 CFU/ml or less, biocide used alone", "setting": "3 day", "result": 40, "unit": "ppm"},
      {"measurement": "Concentration of active needed to achieve bacterial concentrations of 2×10^3 CFU/ml or less, biocide used alone", "setting": "5 day", "result": 40, "unit": "ppm"},
      {"measurement": "Concentration of active needed to achieve bacterial concentrations of 2×10^3 CFU/ml or less, biocide used alone", "setting": "7 day", "result": 40, "unit": "ppm"}
    ]}
  ]
}
